Assay results as given in article PMC5218480 (PLoS ONE, 2017).

Test system: MV-4-11 cells
Assay: Gene expression microarray analysis (Affymetrix PrimeView) and GSEA
Assay type: cell-based, human
Set-up: RFU PODN (11730768_x_at) / Fold change /veh PODN (11730768_x_at) / RFU LINC00158 (11744669_a_at) / Fold change /veh LINC00158 (11744669_a_at) / RFU DUSP10 (11751237_a_at) / Fold change /veh DUSP10 (11751237_a_at) / RFU ID3 (11757404_x_at) / Fold change /veh ID3 (11757404_x_at) / RFU PLEKHG5 (11737974_s_at) / Fold change /veh PLEKHG5 (11737974_s_at) / RFU LRRC4B (11730491_at) / Fold change /veh LRRC4B (11730491_at) / RFU GIMAP4 (11747438_a_at) / Fold change /veh GIMAP4 (11747438_a_at) / RFU KRT8 (11758183_x_at) / Fold change /veh KRT8 (11758183_x_at) / RFU CNN1 (11734310_a_at) / Fold change /veh CNN1 (11734310_a_at) / RFU VPS37D (11726825_at) / Fold change /veh VPS37D (11726825_at) / RFU C10orf10 (11716522_x_at) / Fold change /veh C10orf10 (11716522_x_at) / RFU KIR2DL2 /// KIR2DL4 /// KIR2DL5A /// KIR2DL5B /// KIR2DS1 /// KIR2DS2 /// KIR2DS3 /// KIR2DS4 /// KIR3DL3 /// KIR3DL3 /// KIR3DS1 (11738374_at) / Fold change /veh KIR2DL2 /// KIR2DL4 /// KIR2DL5A /// KIR2DL5B /// KIR2DS1 /// KIR2DS2 /// KIR2DS3 /// KIR2DS4 /// KIR3DL3 /// KIR3DL3 /// KIR3DS1 (11738374_at) / RFU C1QL1 (11718748_at) / Fold change /veh C1QL1 (11718748_at) / RFU TMPRSS4 (11747572_a_at) / Fold change /veh TMPRSS4 (11747572_a_at) / RFU HAMP (11756126_x_at) / Fold change /veh HAMP (11756126_x_at) / RFU RNFT2 (11725882_a_at) / Fold change /veh RNFT2 (11725882_a_at) / RFU NR4A2 (11747474_a_at) / Fold change /veh NR4A2 (11747474_a_at) / RFU ABCC12 (11746883_a_at) / Fold change /veh ABCC12 (11746883_a_at) / RFU TMEM136 (11760407_x_at) / Fold change /veh TMEM136 (11760407_x_at) / RFU CLDN22 /// WWC2 (11732394_at) / Fold change /veh CLDN22 /// WWC2 (11732394_at) / RFU HLA-DPB1 (11760878_x_at) / Fold change /veh HLA-DPB1 (11760878_x_at) / RFU SPINT1 (11716480_a_at) / Fold change /veh SPINT1 (11716480_a_at) / RFU GAP43 (11754022_s_at) / Fold change /veh GAP43 (11754022_s_at) / RFU A4GNT (11735810_at) / Fold change /veh A4GNT (11735810_at) / RFU PRB3 (11715151_x_at) / Fold change /veh PRB3 (11715151_x_at) / RFU TUBB4B (11761932_at) / Fold change /veh TUBB4B (11761932_at) / RFU CAPN14 (11732068_a_at) / Fold change /veh CAPN14 (11732068_a_at) / RFU TMCC2 (11721928_a_at) / Fold change /veh TMCC2 (11721928_a_at) / RFU IRGQ (11745062_a_at) / Fold change /veh IRGQ (11745062_a_at) / RFU FAM174B (11720279_a_at) / Fold change /veh FAM174B (11720279_a_at) / RFU TMPRSS4 (11748680_a_at) / Fold change /veh TMPRSS4 (11748680_a_at) / RFU FAM212B (11763350_a_at) / Fold change /veh FAM212B (11763350_a_at) / RFU PLEKHG5 (11743358_a_at) / Fold change /veh PLEKHG5 (11743358_a_at) / RFU ZSCAN30 (11745921_a_at) / Fold change /veh ZSCAN30 (11745921_a_at) / RFU CMKLR1 (11741424_a_at) / Fold change /veh CMKLR1 (11741424_a_at) / RFU LOC101060620 /// MAPK8IP1 (11723275_at) / Fold change /veh LOC101060620 /// MAPK8IP1 (11723275_at) / RFU SPTSSB (11747773_x_at) / Fold change /veh SPTSSB (11747773_x_at) / RFU PRSS12 (11739890_at) / Fold change /veh PRSS12 (11739890_at) / RFU BIN1 (11741810_x_at) / Fold change /veh BIN1 (11741810_x_at) / RFU WNT11 (11732464_a_at) / Fold change /veh WNT11 (11732464_a_at) / RFU C10orf10 (11716521_a_at) / Fold change /veh C10orf10 (11716521_a_at) / RFU C5orf56 (11738089_at) / Fold change /veh C5orf56 (11738089_at) / RFU CYB561 (11721691_x_at) / Fold change /veh CYB561 (11721691_x_at) / RFU ANKRD19P (11752326_a_at) / Fold change /veh ANKRD19P (11752326_a_at) / RFU OR2T12 /// OR2T33 /// OR2T8 (11738714_s_at) / Fold change /veh OR2T12 /// OR2T33 /// OR2T8 (11738714_s_at) / RFU VCAN (11748164_a_at) / Fold change /veh VCAN (11748164_a_at) / RFU JSRP1 (11732532_at) / Fold change /veh JSRP1 (11732532_at) / RFU KRTAP10-11 (11738290_x_at) / Fold change /veh KRTAP10-11 (11738290_x_at) / RFU MYO3A (11730013_a_at) / Fold change /veh MYO3A (11730013_a_at) / RFU EBF3 (11725865_a_at) / Fold change /veh EBF3 (11725865_a_at) / RFU CAMK2N1 (11719241_x_at) / Fold change /veh CAMK2N1 (11719241_x_at) / RFU C5orf56 (11738088_a_at) / Fold change /veh C5orf56 (11738088_a_at) / RFU OLFML3 (11715873_a_at) / Fold change /veh OLFML3 (11715873_a_at) / RFU LOC100653217 /// NTM (11731650_a_at) / Fold change /veh LOC100653217 /// NTM (11731650_a_at) / RFU MAPK11 (11762145_a_at) / Fold change /veh MAPK11 (11762145_a_at) / RFU FIZ1 (11724087_x_at) / Fold change /veh FIZ1 (11724087_x_at) / RFU OASL (11726364_x_at) / Fold change /veh OASL (11726364_x_at) / RFU SOX15 (11748057_x_at) / Fold change /veh SOX15 (11748057_x_at) / RFU CD79A (11719716_a_at) / Fold change /veh CD79A (11719716_a_at) / RFU HIST1H1D (11736915_at) / Fold change /veh HIST1H1D (11736915_at) / RFU CASKIN2 (11723855_a_at) / Fold change /veh CASKIN2 (11723855_a_at) / RFU LOC730098 (11760151_x_at) / Fold change /veh LOC730098 (11760151_x_at) / RFU OR4N2 (11742367_at) / Fold change /veh OR4N2 (11742367_at) / RFU PRRT2 (11749266_a_at) / Fold change /veh PRRT2 (11749266_a_at) / RFU SNX32 (11753110_a_at) / Fold change /veh SNX32 (11753110_a_at) / RFU CDHR5 (11726645_a_at) / Fold change /veh CDHR5 (11726645_a_at) / RFU RCAN1 (11760418_a_at) / Fold change /veh RCAN1 (11760418_a_at) / RFU FAM167A (11723789_a_at) / Fold change /veh FAM167A (11723789_a_at) / RFU FAM26E (11764081_at) / Fold change /veh FAM26E (11764081_at) / RFU ISYNA1 (11749810_s_at) / Fold change /veh ISYNA1 (11749810_s_at) / RFU ACY1 (11761880_at) / Fold change /veh ACY1 (11761880_at) / RFU 11764098_at / Fold change /veh 11764098_at / RFU SAMD14 (11745864_x_at) / Fold change /veh SAMD14 (11745864_x_at) / RFU NPB (11741838_a_at) / Fold change /veh NPB (11741838_a_at) / RFU TMPRSS6 (11731388_a_at) / Fold change /veh TMPRSS6 (11731388_a_at) / RFU KRTAP10-2 (11738614_at) / Fold change /veh KRTAP10-2 (11738614_at) / RFU ARHGAP8 /// PRR5-ARHGAP8 (11727945_x_at) / Fold change /veh ARHGAP8 /// PRR5-ARHGAP8 (11727945_x_at) / RFU KRTAP5-7 /// NADSYN1 (11734609_at) / Fold change /veh KRTAP5-7 /// NADSYN1 (11734609_at) / RFU RASL12 (11751679_a_at) / Fold change /veh RASL12 (11751679_a_at) / RFU CDKN2B (11736163_a_at) / Fold change /veh CDKN2B (11736163_a_at) / RFU PRF1 (11729649_at) / Fold change /veh PRF1 (11729649_at) / RFU, ZNF638 /// ZNF638-IT1 / Fold change vs veh, ZNF638 /// ZNF638-IT1 / RFU, PANK3 / Fold change vs veh, PANK3 / RFU, SH3YL1 / Fold change vs veh, SH3YL1 / RFU, ZEB2 / Fold change vs veh, ZEB2 / RFU, NRIP1 / Fold change vs veh, NRIP1 / RFU, PTTG1IP / Fold change vs veh, PTTG1IP / RFU, CAPN2 / Fold change vs veh, CAPN2 / RFU, MED14 / Fold change vs veh, MED14 / RFU, SNORA58 / Fold change vs veh, SNORA58 / RFU, C1orf63 / Fold change vs veh, C1orf63 / RFU, LRRFIP1 / Fold change vs veh, LRRFIP1 / RFU, NDUFAF7 / Fold change vs veh, NDUFAF7 / RFU, SLC12A2 / Fold change vs veh, SLC12A2 / RFU, IBTK / Fold change vs veh, IBTK / RFU, ESF1 / Fold change vs veh, ESF1 / Fold change vs veh, TMEM50B / RFU, TAOK1 / Fold change vs veh, TAOK1 / RFU, ACBD3 / Fold change vs veh, ACBD3 / RFU, TMA16 / Fold change vs veh, TMA16 / RFU, RWDD3 / Fold change vs veh, RWDD3 / RFU, BCAT1 / Fold change vs veh, BCAT1 / RFU, EDEM3 / Fold change vs veh, EDEM3 / RFU, TMEM33 / Fold change vs veh, TMEM33 / RFU, WDR75 / Fold change vs veh, WDR75 / RFU, AHCTF1 / Fold change vs veh, AHCTF1 / RFU, TFRC / Fold change vs veh, TFRC / RFU, ZDHHC17 / Fold change vs veh, ZDHHC17 / RFU, NOM1 / Fold change vs veh, NOM1 / RFU, ARL8B / Fold change vs veh, ARL8B / RFU, ZBTB11 / Fold change vs veh, ZBTB11 / RFU, TAMM41 / Fold change vs veh, TAMM41 / RFU, KIAA1704 /// LOC100996395 / Fold change vs veh, KIAA1704 /// LOC100996395 / RFU, ING1 / Fold change vs veh, ING1 / RFU, TRMT61B / Fold change vs veh, TRMT61B / RFU, FUBP3 / Fold change vs veh, FUBP3 / RFU, TP53 / Fold change vs veh, TP53 / RFU, TNKS2 / Fold change vs veh, TNKS2 / RFU, ZFP14 / Fold change vs veh, ZFP14 / RFU, ACTR2 / Fold change vs veh, ACTR2 / RFU, PPP3R1 / Fold change vs veh, PPP3R1 / RFU, PIK3R1 / Fold change vs veh, PIK3R1 / RFU, HNRNPA1 / Fold change vs veh, HNRNPA1 / RFU, RNF170 / Fold change vs veh, RNF170 / RFU, ZNF28 / Fold change vs veh, ZNF28 / RFU, RNGTT / Fold change vs veh, RNGTT / RFU, OGT / Fold change vs veh, OGT / RFU, BRD1 / Fold change vs veh, BRD1 / RFU, MARS / Fold change vs veh, MARS / RFU, ZNF655 / Fold change vs veh, ZNF655 / RFU, FAHD1 / Fold change vs veh, FAHD1 / RFU, BDP1 / Fold change vs veh, BDP1 / RFU, LRRCC1 / Fold change vs veh, LRRCC1 / RFU, ARID1A / Fold change vs veh, ARID1A / RFU, ZNF146 / Fold change vs veh, ZNF146 / RFU, ZNF330 / Fold change vs veh, ZNF330 / RFU, GPN3 / Fold change vs veh, GPN3 / RFU, C9orf123 / Fold change vs veh, C9orf123 / RFU, N4BP2L2 / Fold change vs veh, N4BP2L2 / RFU, ARFIP1 / Fold change vs veh, ARFIP1 / RFU, FAM179B / Fold change vs veh, FAM179B / RFU, BCL10 / Fold change vs veh, BCL10 / RFU, UHRF1BP1L / Fold change vs veh, UHRF1BP1L / RFU, BET1 / Fold change vs veh, BET1 / RFU, CNOT2 / Fold change vs veh, CNOT2 / RFU, ZNF268 / Fold change vs veh, ZNF268 / Fold change vs veh, ZNF507 / RFU, DGCR2 / Fold change vs veh, DGCR2 / RFU, WDSUB1 / Fold change vs veh, WDSUB1 / Fold change vs veh, HSP90B1 /// MIR3652 / RFU, ADSS / Fold change vs veh, ADSS / RFU, GK / Fold change vs veh, GK / RFU, ZNF148 / Fold change vs veh, ZNF148 / RFU, TAF9 / Fold change vs veh, TAF9 / RFU, SLC1A5 / Fold change vs veh, SLC1A5 / RFU, SLMO2 / Fold change vs veh, SLMO2 / RFU, ABCC4 / Fold change vs veh, ABCC4 / RFU, LOC101060439 /// RAP1B / Fold change vs veh, LOC101060439 /// RAP1B / RFU, RFX7 / Fold change vs veh, RFX7 / RFU, GTPBP10 / Fold change vs veh, GTPBP10 / RFU, CNEP1R1 / Fold change vs veh, CNEP1R1 / RFU, BIVM-ERCC5 /// ERCC5 / Fold change vs veh, BIVM-ERCC5 /// ERCC5 / RFU, ILF3 / Fold change vs veh, ILF3 / RFU 11762660_at / Fold change /veh 11762660_at / RFU VCAN (11757783_s_at) / Fold change /veh VCAN (11757783_s_at) / RFU DDX43 (11728927_at) / Fold change /veh DDX43 (11728927_at) / RFU KRT8 (11758188_x_at) / Fold change /veh KRT8 (11758188_x_at) / RFU NKD1 (11759106_at) / Fold change /veh NKD1 (11759106_at) / RFU SRD5A1 (11742802_a_at) / Fold change /veh SRD5A1 (11742802_a_at) / RFU TPSAB1 /// TPSB2 (11721975_s_at) / Fold change /veh TPSAB1 /// TPSB2 (11721975_s_at) / RFU GSTM3 (11746129_a_at) / Fold change /veh GSTM3 (11746129_a_at) / RFU IL23R (11737362_x_at) / Fold change /veh IL23R (11737362_x_at) / RFU TMEM51 (11727254_a_at) / Fold change /veh TMEM51 (11727254_a_at) / RFU PIWIL2 (11732686_x_at) / Fold change /veh PIWIL2 (11732686_x_at) / RFU ORM1 (11744905_x_at) / Fold change /veh ORM1 (11744905_x_at) / RFU CCDC152 (11743942_at) / Fold change /veh CCDC152 (11743942_at) / RFU ECM1 (11717891_a_at) / Fold change /veh ECM1 (11717891_a_at) / RFU IL23R (11748794_a_at) / Fold change /veh IL23R (11748794_a_at) / RFU TNFAIP8L3 (11732012_x_at) / Fold change /veh TNFAIP8L3 (11732012_x_at) / RFU MBOAT4 (11741988_at) / Fold change /veh MBOAT4 (11741988_at) / RFU 11764193_at / Fold change /veh 11764193_at / RFU TMEM53 (11763286_at) / Fold change /veh TMEM53 (11763286_at) / RFU MAGEB2 (11727129_at) / Fold change /veh MAGEB2 (11727129_at) / RFU TMEM200A (11744735_a_at) / Fold change /veh TMEM200A (11744735_a_at) / RFU CCDC152 (11751479_a_at) / Fold change /veh CCDC152 (11751479_a_at) / RFU FAM211A (11726209_a_at) / Fold change /veh FAM211A (11726209_a_at) / RFU RGS16 (11746705_a_at) / Fold change /veh RGS16 (11746705_a_at) / RFU VCAN (11755009_s_at) / Fold change /veh VCAN (11755009_s_at) / RFU RHOB (11743442_s_at) / Fold change /veh RHOB (11743442_s_at) / RFU RGS16 (11720943_a_at) / Fold change /veh RGS16 (11720943_a_at) / RFU RGS16 (11720944_at) / Fold change /veh RGS16 (11720944_at) / RFU, VPS4B / Fold change vs veh, VPS4B / RFU, CREB1 / Fold change vs veh, CREB1 / RFU, DNAJC13 / Fold change vs veh, DNAJC13 / RFU, GNAQ / Fold change vs veh, GNAQ / RFU, CDK5R1 / Fold change vs veh, CDK5R1 / RFU, ZRANB3 / Fold change vs veh, ZRANB3 / RFU, CUL4A / Fold change vs veh, CUL4A / RFU, CCNY / Fold change vs veh, CCNY / RFU, UFL1 / Fold change vs veh, UFL1 / RFU, COG3 / Fold change vs veh, COG3 / RFU, DIAPH2 / Fold change vs veh, DIAPH2 / RFU, SKA2 / Fold change vs veh, SKA2 / RFU, AFF3 / Fold change vs veh, AFF3 / RFU, LMF1 / Fold change vs veh, LMF1 / RFU, IPO11 / Fold change vs veh, IPO11 / RFU, DFFB / Fold change vs veh, DFFB / RFU, FOXP1 / Fold change vs veh, FOXP1 / RFU, CARD8 / Fold change vs veh, CARD8 / RFU, STRN3 / Fold change vs veh, STRN3 / RFU, ADK / Fold change vs veh, ADK / RFU, RASSF2 / Fold change vs veh, RASSF2 / RFU, WIPF1 / Fold change vs veh, WIPF1 / RFU, LARP1B / Fold change vs veh, LARP1B / RFU, RASA1 / Fold change vs veh, RASA1 / RFU, RB1 / Fold change vs veh, RB1 / RFU, PPFIA1 / Fold change vs veh, PPFIA1 / RFU, MAT2A / Fold change vs veh, MAT2A / RFU, CCT5 / Fold change vs veh, CCT5 / RFU, WDR92 / Fold change vs veh, WDR92 / RFU, CUX1 / Fold change vs veh, CUX1 / RFU, TTC7A / Fold change vs veh, TTC7A / RFU, TMEM135 / Fold change vs veh, TMEM135 / RFU, DEPTOR / Fold change vs veh, DEPTOR / RFU, CPM / Fold change vs veh, CPM / RFU, DNAJB6 / Fold change vs veh, DNAJB6 / RFU, CACNA2D3 / Fold change vs veh, CACNA2D3 / RFU, DTX4 / Fold change vs veh, DTX4 / RFU, TFCP2 / Fold change vs veh, TFCP2 / RFU, GMCL1 /// GMCL1P1 / Fold change vs veh, GMCL1 /// GMCL1P1 / RFU, AEBP2 / Fold change vs veh, AEBP2 / RFU, SNHG1 /// SNORD22 /// SNORD25 /// SNORD26 /// SNORD27 /// SNORD28 /// SNORD29 /// SNORD31 / Fold change vs veh, SNHG1 /// SNORD22 /// SNORD25 /// SNORD26 /// SNORD27 /// SNORD28 /// SNORD29 /// SNORD31 / Fold change (Aza/veh), C12orf56 (ProbeSet 11735607_a_at) / Fold change (ACY-1035/veh), C12orf56 (ProbeSet 11735607_a_at) / Fold change (Aza/veh), FGFR1OP (ProbeSet 11751329_s_at) / Fold change (ACY-1035/veh), FGFR1OP (ProbeSet 11751329_s_at) / Fold change (Aza/veh), VPS36 (ProbeSet 11739960_a_at) / Fold change (ACY-1035/veh), VPS36 (ProbeSet 11739960_a_at) / RFU SYPL1 (11715823_x_at) / Fold change /veh SYPL1 (11715823_x_at) / RFU IGFBP7 (11715501_s_at) / Fold change /veh IGFBP7 (11715501_s_at) / RFU REEP3 (11722064_at) / Fold change /veh REEP3 (11722064_at) / RFU IGLL1 (11728026_x_at) / Fold change /veh IGLL1 (11728026_x_at): dose or concentration left out as unconfirmed
Conditions: ProbeSet 11732154_at; LIST B

## Nc1ccc(-c2cccs2)cc1NC(=O)c1ccc2c(c1)cc(C1CC1)n2CCN1CCOCC1 [ACY-1035]
  Fold change vs veh, OGT: 1.05
